The record followed here is patent publication US8906852B2 (MethylGene Inc., priority 2010, dated 2014).

Assay [1] has as its target T1, VEGFR/KDR (Homo sapiens, UniProt P35968).
T1 construct: made in house; host or cells: Sf9 cells (Spodoptera frugiperda), baculovirus
Put plainly: VEGFR/KDR kinase inhibition, DELFIA assay. It is filed as biochemical. The note with it: ATP 0.6 uM (2x Km), enzyme 5 nM. Put shortly:
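DELFIA time-resolved fluorescence readout using Europium-tagged anti-phosphotyrosine antibody after EDTA stop. Kinase reaction on plate-bound poly(Glu4,Tyr) ran 10-30 min at 30° C with 5 nM enzyme and 0.6 uM ATP (2× Km), following 4 min on-ice pre-incubation with compound; IC50 over a concentration range.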

In assay [2] the test system is CNV progression. Put plainly: In vivo choroidal neovascularization (CNV) model, laser-induced, intravitreal injection. Also noted: species or system Male Brown-Norway rats. The settings on record: rat; for inhibition in vivo at 10 nmol/eye / inhibition in vivo at 3 nmol/eye: 240 h; for inhibition in vivo at 10 nmol/eye / Inhibition of CNV progression: 10 nmol/eye injected on Day 3, CNV area on Day 10, vs vehicle; for inhibition in vivo at 3 nmol/eye: 3 nmol/eye injected on Day 3, CNV area on Day 10, vs vehicle. The source says: This test measures the capacity of compounds to inhibit CNV progression. CNV is the main cause of severe vision loss in patients suffering from age-related macular degeneration (AMD).
Male Brown-Norway rats (Japan Clea Co., Ltd.) were used in these studies.
Rats were anesthetized by intraperitoneal injection of pentobarbital, and the right pupil was dilated with 0.5% tropicamide and 0.5% phenylephrine hydrochloride. The right eye received 6 laser burns between retinal vessels using a slit lamp delivery system of Green laser Photocoagulator (Nidex Inc., Japan), and microscope slide glass with Healon™ (AMO Inc) used as a contact lens. The laser power was 100 or 200 mW for 0.1 second and spot diameter was 100 μm. At the time of laser burn, bubble production was observed, which is an indication of rupture of Bruch's membrane which is important for CNV generation.
Rats were divided into the groups based on their body weight using SAS software (SAS institute Japan, R8.1) after laser irradiation (Day 0). After animals were anesthetized, and the right pupil dilated (as above mentioned), the right eye of the animal received the compound or vehicle by an injection (10 μL/eye) at doses of 10 or 3 nmol/eye on Day 3. The compounds were dissolved or suspended in CBS, PBS, or other adequate vehicles before injection.
On Day 10, the animals were anesthetized with ether, and high molecular weight fluorescein isothiocyanate (FITC)-dextran (SIGMA, 2×10^6 MW) was injected via a tail vein (20 mg/rat). About 30 min after FITC-dextran injection, animals were euthanized by ether or carbon dioxide, and the eyes were removed and fixed with 10% formaline neutral buffer solution. After over 1 hour of fixation, RPE-choroid-sclera flat mounts were obtained by removing cornea, lens and retina from the eyeballs. The flat mounts were mounted in 50% glycerol on a microscope slide, and the portion burned by laser was photographed using a fluorescence microscope (Nikon Corporation, excitation filter:465-495 nm, absorption filter:515-555 nm). The CNV area was obtained by measurement of hyper-fluorescence area observed on the photograph using Scion image.
The average CNV area of 6 burns was used as an individual value of CNV area, and the average CNV area of compound treated group was compared with that of the vehicle-treated group.

T1 sequence (P35968 806-1356): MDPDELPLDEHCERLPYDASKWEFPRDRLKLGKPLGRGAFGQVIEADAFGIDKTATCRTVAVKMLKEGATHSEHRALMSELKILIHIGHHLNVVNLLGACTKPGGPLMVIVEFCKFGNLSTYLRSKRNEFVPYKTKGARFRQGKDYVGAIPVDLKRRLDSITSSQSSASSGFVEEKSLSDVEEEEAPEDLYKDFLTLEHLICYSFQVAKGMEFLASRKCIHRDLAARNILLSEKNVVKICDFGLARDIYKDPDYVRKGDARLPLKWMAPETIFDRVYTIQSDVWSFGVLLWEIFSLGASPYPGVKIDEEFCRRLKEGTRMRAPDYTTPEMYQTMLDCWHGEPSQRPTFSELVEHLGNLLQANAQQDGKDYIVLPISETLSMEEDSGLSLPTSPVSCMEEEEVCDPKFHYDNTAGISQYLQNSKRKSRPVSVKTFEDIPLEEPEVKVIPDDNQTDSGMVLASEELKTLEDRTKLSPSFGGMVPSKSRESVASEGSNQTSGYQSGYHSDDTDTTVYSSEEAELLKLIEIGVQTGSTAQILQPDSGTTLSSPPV

Take `COCCN(Cc1ccc(-c2cc3nccc(Oc4ccc(NC(=O)NC5CC5)cc4F)c3s2)nc1)C(=O)CS(C)(=O)=O` [Compound 90, N-((6-(7-(4-(3-cyclopropylureido)-2-fluorophenoxy)thieno[3,2-b]pyridin-2-yl)pyridin-3-yl)methyl)-N-(2-methoxyethyl)-2-(methylsulfonyl)acetamide]: the IC50 in assay [1] was less than 50 nM. The inhibition in vivo at 10 nmol/eye in assay [2] is not below 60%.

`COCCN(Cc1ccc(-c2cc3nccc(Oc4ccc(NC(=O)NC5CC5)cc4F)c3s2)nc1)C(N)=O` [Compound 5, N-[3-((6-(7-(4-(3-cyclopropylureido)-2-fluorophenoxy)thieno[3,2-b]pyridin-2-yl)pyridin-3-yl)methyl)]-N-[3-(2-methoxyethyl)]urea] came in with a 50% inhibitory concentration (IC50) in assay [1] of less than 50 nM. Moreover, in assay [2], the inhibition in vivo at 10 nmol/eye was in the range of 40 to 60%.

Regarding `COCCNCCc1ccc(-c2cc3nccc(Oc4ccc(NC(=O)NC5CC5)cc4F)c3s2)nc1` [Compound 288, 1-cyclopropyl-3-(3-fluoro-4-(2-(5-(2-(2-methoxyethylamino)ethyl)pyridin-2-yl)thieno[3,2-b]pyridin-7-yloxy)phenyl)urea], in assay [1], the IC50 is less than 50 nM. Further, the inhibition in vivo at 10 nmol/eye in assay [2] lay within 40 to 60%.

As to `CC(C)N(CCN1CCN(C(=O)c2ccc(-c3cc4nccc(Oc5ccc(NC(=O)NC6CC6)cc5F)c4s3)nc2)CC1)C(C)C` [Compound 230, 1-cyclopropyl-3-(4-(2-(5-(4-(2-(diisopropylamino)ethyl)piperazine-1-carbonyl)pyridin-2-yl)thieno[3,2-b]pyridin-7-yloxy)-3-fluorophenyl)urea], the concentration for half-maximal inhibition (IC50) in assay [1] was less than 50 nM. This compound also had an inhibition in vivo at 3 nmol/eye in assay [2] of 40 to 60%.

On to `Cn1c(CN2CCCC2=O)cnc1-c1cc2nccc(Oc3ccc(NC(=O)NC4CC4)cc3F)c2s1` [Compound 137, 1-cyclopropyl-3-(3-fluoro-4-(2-(1-methyl-5-((2-oxopyrrolidin-1-yl)methyl)-1H-imidazol-2-yl)thieno[3,2-b]pyridin-7-yloxy)phenyl)urea], for which the IC50 in assay [1] is less than 50 nM. In assay [2], this compound came in with an inhibition in vivo at 10 nmol/eye of 40 to 60%.

In the case of `O=C(Nc1ccc(Oc2ccnc3cc(-c4ccc(CN5CCN(CCO)CC5)cn4)sc23)c(F)c1)NC1CC1` [Compound 55, 1-cyclopropyl-3-(3-fluoro-4-(2-(5-((4-(2-hydroxyethyl)piperazin-l-yl)methyl)pyridin-2-yl)thieno[3,2-b]-pyridin-7-yloxy)phenyl)urea], the IC50 in assay [1] was less than 50 nM. In addition, in assay [2], the inhibition in vivo at 10 nmol/eye was 40 to 60%.

With “N-((6-(7-(4-(3-cyclopropylureido)-2-fluorophenoxy)thieno[3,2-b]pyridin-2-yl)pyridin-3-yl)methyl)-N-(2-methoxyethyl)formimidamide [Compound 7]”, the “Inhibition of CNV progression” value in assay [2] is “B (≧40% to <60% inhibition)”.

In assay [1], `CCNC(=O)N(CCOCCOCCOCCOC)Cc1ccc(-c2cc3nccc(Oc4ccc(NC(=O)NC5CC5)cc4F)c3s2)nc1` [Compound 36, N-[3-((6-(7-(4-(3-cyclopropylureido)-2-fluorophenoxy)-thieno[3,2-b]-pyridin-2-yl)pyridin-3-yl)methyl)]-N-(1-ethyl)-N-[3-(2,5,8,11-tetraoxatridecan-13-yl)]urea] showed an IC50 of less than 50 nM. In assay [2], this compound came in with an inhibition in vivo at 10 nmol/eye of 40 to 60%.

The compound `COCCN(C=N)Cc1ccc(-c2cc3nccc(Oc4ccc(NC(=O)NC5CC5)cc4F)c3s2)nc1` [Compound 7, N-((6-(7-(4-(3-cyclopropylureido)-2-fluorophenoxy)thieno[3,2-b]pyridin-2-yl)pyridin-3-yl)methyl)-N-(2-methoxyethyl)formimidamide] yielded an IC50 in assay [1] of less than 50 nM. The compound further came in with an inhibition in vivo at 10 nmol/eye in assay [2] not below 60%.

For the compound `CN1CCN(CCn2cc(-c3cc4nccc(Oc5ccc(NC(=O)NC6CC6)cc5F)c4s3)cn2)CC1` [Compound 154, 1-cyclopropyl-3-(3-fluoro-4-(2-(1-(2-(4-methylpiperazin-1-yl)ethyl)-1H-pyrazol-4-yl)thieno[3,2-b]pyridin-7-yloxy)phenyl)urea], in assay [1], the half-maximal inhibitory concentration (IC50) is less than 50 nM. This compound also showed an inhibition in vivo at 3 nmol/eye in assay [2] of 40 to 60%.

`CN(C)C(=O)CCN1CCN(Cc2ccc(-c3cc4nccc(Oc5ccc(NC(=O)NC6CC6)cc5F)c4s3)nc2)CC1` [Compound 83, 3-(4-((6-(7-(4-(3-cyclopropylureido)-2-luorophenoxy)thieno-[3,2-b]pyridin-2-yl)pyridin-3-yl)melhyl)piperazin-l-yl)-N,N-dimethyl-propanamide]: in assay [1], the IC50 was less than 50 nM. The inhibition in vivo at 10 nmol/eye in assay [2] fell in the range of 40 to 60%.

For `CN1CCN(Cc2ccc(-c3cc4nccc(Oc5ccc(NC(=O)NC6CC6)cc5F)c4s3)nc2)CC1` [Compound 51, 1-cyclopropyl-3-(3-fluoro-4-(2-(5-((4-methylpiperazin-1-yl)methyl)pyridin-2-yl)thieno[3,2-b]-pyridin-7-yloxy)phenyl)urea], the half-maximal inhibitory concentration (IC50) in assay [1] was less than 50 nM. The inhibition in vivo at 10 nmol/eye in assay [2] is not below 60%.

`O=C(Nc1ccc(Oc2ccnc3cc(-c4ccc(CN5CCNCC5)cn4)sc23)c(F)c1)NC1CC1` [Compound 49, 1-cyclopropyl-3-(3-fluoro-4-(2-(5-(piperazin-1-ylmethyl)pyridin-2-yl)thieno[3,2-b]-pyridin-7-yloxy)phenyl)urea]: the half-maximal inhibitory concentration (IC50) in assay [1] is less than 50 nM. For the same compound, in assay [2], the inhibition in vivo at 10 nmol/eye is not below 60%.

Consider `CN1CCC(CN2CCN(C(=O)c3ccc(-c4cc5nccc(Oc6ccc(NC(=O)NC7CC7)cc6F)c5s4)nc3)CC2)CC1` [Compound 232, 1-cyclopropyl-3-(3-fluoro-4-(2-(5-(4-((1-methylpiperidin-4-yl)methyl)piperazine-1-carbonyl)pyridin-2-yl)thieno[3,2-b]pyridin-7-yloxyl)phenyl)urea], for which the half-inhibitory concentration (IC50) in assay [1] is less than 50 nM. Moreover, the inhibition in vivo at 3 nmol/eye in assay [2] is 40 to 60%.

Take `COCCN(CCc1ccc(-c2cc3nccc(Oc4ccc(NC(=O)NC5CC5)cc4F)c3s2)nc1)C(C)=O` [Compound 41, N-(2-(6-(7-(4-(3-cyclopropylureido)-2-fluorophcnoxy)-thieno[3,2-b]-pyridin-2-yl)pyridin-3-yl)ethyl)-N-(2-methoxyethyl)-acetamide]: in assay [1], the IC50 was less than 50 nM. Besides, the inhibition in vivo at 10 nmol/eye in assay [2] was 40 to 60%.

For “2-cyclopropyl-N-(3-fluoro-4-(2-(5-((N- (2-methoxyethyl)-acetamido)methyl)pyridin-2- yl)thieno[3,2-b]-pyridin-7-yloxy)phenyl)-acetamide [Compound 42]”, the “Inhibition of CNV progression” value in assay [2] was “A (greater than or equal to 60% inhibition)”.

In the case of `COCCN(Cc1ccc(-c2cc3nccc(Oc4ccc(NC(=O)NC5CC5)cc4F)c3s2)nc1)C(=O)[C@H](C)O` [Compound 89, (S)-N-((6-(7-(4-(3-cyclopropylureido)-2-fluorophenoxy)thieno[3,2-b]pyridin-2-yl)pyridin-3-yl)methyl)-2-hydroxy-N-(2-methoxyethyl)propanamide], in assay [1], the IC50 is less than 50 nM. In assay [2], the inhibition in vivo at 10 nmol/eye was not below 60%.

“(S)-1-(4-(2-(5-((3-amino-2-oxopyrrolidin-1-yl)methyl)pyridin-2-yl)thieno[3,2-b]pyridin-7-yloxy)-3-fluorophenyl)-3-cyclopropylurea [Compound 108]”: the “Inhibition of CNV progression” value in assay [2] is listed as “A (greater than or equal to 60% inhibition)”.
